The text below walks through data of US20240383875A1, “Benzimidazole Pyridine Derivatives” (Hoffmann-La Roche Inc., priority 2022, published 2024).

Holding throughout (assay type): biochemical
The target in one experiment is SIK2 (Homo sapiens, UniProt Q9H0K1). Nature of the experiment: Enzymatic activity assay SIK2, RapidFire mass spectrometry (phosphorylation of CHK-peptide). The conditions noted are these: RapidFire MS, inhibition of SIK2; read-out: SIK2 RF IC50. As to the method:
(§1) Assay description SIK1-3, RapidFire:
In the presence of SIK2 (resp. SIK1 or SIK3) and ATP the CHK-peptide ([…] with C-terminal arginine amide modification) were phosphorylated at one of the four feasible serine's. […] 5 μl SIK2 (0.5 nM) or 7 μl SIK3 (1.5 nM) in assay-buffer (12.5 mM HEPES (pH 7.0), 10 mM magnesium acetate, 0.005% BSA). 10 μM CHK-peptide solution and 5 μl 100 μM ATP for SIK1 & SIK2 resp. 3 μl for SIK3 in assay-buffer were added and incubated ambient for 45 min. 40 μl 0.125% formic acid in water were added to quench the reaction. RapidFire (RF) Mass Spectrometry was utilized for data generation as described below. The multiple charged species (3-5 charges) for the phosphorylated and non-phosphorylated form measured by MRM (Multiple Reaction Monitoring; API5000 or 6500+) or EIC (Extracted Ion Current; QToF) were summed up and the ratio calculated (sum phosphorylated species/sum all species) for data evaluation. Normalization was performed by Genedata software based on the non-inhibition control DMSO and the commercially available SIK inhibitor @ 1 μM YKL-05-099 (CAS number 1936529-65-5).
(§2) Samples were aspirated by vacuum for max. 600 ms and loaded to C4-cartridge (Agilent; #G9203A) for 3000 ms@1.5 ml/min with 0.1% formic acid in water. Afterwards samples were transferred to the APT5000 (APT6500+) or QToF mass spectrometer for 4000 ms@1.25 ml/min with 90% acetonitrile; 10% water; 0.007% TFA; 0.093 formic acid. The cartridge was reconditioned for additional 500 ms with 0.1% formic acid in water
(§3) All MS analyses using the following MS-setup in MRM mode: Electrospray positive; Ion Spray Voltage: 4000V; Temperature: 550° C.; Collision Gas: 5; Curtain Gas: 15; Gas1: 40; Gas 2: 42; EP: 10
(§4) MS-Setup Agilent QToF 6545
(§5) All MS analyses using the following MS-setup in Mode MS: Dual AJS Electrospray positive; VCap: 3000V; Drying & Sheath gas: 340° C.@81/min; Nebulizer: 60 psig; Nozzle Voltage: 2000V; Fragmentor: 130V; Skimmer: 35V; Oct1 RF Vpp: 700V; Ref masses on@5spectra/s

Another experiment addresses SIK1 (Homo sapiens, UniProt P57059). Nature of the experiment: Enzymatic activity assay SIK1, RapidFire mass spectrometry (phosphorylation of CHK-peptide). The conditions noted are these: RapidFire MS, inhibition of SIK1; read-out: SIK1 RF IC50. As to the method:
as §1
(§6) In the presence of SIK2 (resp. SIK1 or SIK3) and ATP the CHK-peptide ([…] with C-terminal arginine amide modification) were phosphorylated at one of the four feasible serine's. Only one phosphorylation is observed under the assay conditions. 60 nl of each compound dilution series (12 point; dilution factor 3, generally 30 μM to 170 pM) in DMSO were transferred by acoustic dispensing to the assay plate and 30 min pre-incubated (ambient temperature) after the addition of 5 μl SIK1 (5 nM) resp. 5 μl SIK2 (0.5 nM) or 7 μl SIK3 (1.5 nM) in assay-buffer (12.5 mM HEPES (pH 7.0), 10 mM magnesium acetate, 0.005% BSA). 10 μM CHK-peptide solution and 5 μl 100 μM ATP for SIK1 & SIK2 resp. 3 μl for SIK3 in assay-buffer were added and incubated ambient for 45 min. 40 μl 0.125% formic acid in water were added to quench the reaction. RapidFire (RF) Mass Spectrometry was utilized for data generation as described below. The multiple charged species (3-5 charges) for the phosphorylated and non-phosphorylated form measured by MRM (Multiple Reaction Monitoring; API5000 or 6500+) or EIC (Extracted Ion Current; QToF) were summed up and the ratio calculated (sum phosphorylated species/sum all species) for data evaluation. Normalization was performed by Genedata software based on the non-inhibition control DMSO and the commercially available SIK inhibitor @ 1 μM YKL-05-099 (CAS number 1936529-65-5). The results of the assay are expressed in half-maximal inhibitory concentrations (IC50s) and are summarized below in Table 1.
as §2, §3, §4, §5

The target of a further experiment is SIK3 (Homo sapiens, UniProt Q9Y2K2). Nature of the experiment: Enzymatic activity assay SIK3, RapidFire mass spectrometry (phosphorylation of CHK-peptide). Conditions: RapidFire MS, inhibition of SIK3; read-out: SIK3 RF IC50. The method, then:
as §1, §6, §2, §3, §4, §5

Sequence of SIK3 (Q9Y2K2 whole entry): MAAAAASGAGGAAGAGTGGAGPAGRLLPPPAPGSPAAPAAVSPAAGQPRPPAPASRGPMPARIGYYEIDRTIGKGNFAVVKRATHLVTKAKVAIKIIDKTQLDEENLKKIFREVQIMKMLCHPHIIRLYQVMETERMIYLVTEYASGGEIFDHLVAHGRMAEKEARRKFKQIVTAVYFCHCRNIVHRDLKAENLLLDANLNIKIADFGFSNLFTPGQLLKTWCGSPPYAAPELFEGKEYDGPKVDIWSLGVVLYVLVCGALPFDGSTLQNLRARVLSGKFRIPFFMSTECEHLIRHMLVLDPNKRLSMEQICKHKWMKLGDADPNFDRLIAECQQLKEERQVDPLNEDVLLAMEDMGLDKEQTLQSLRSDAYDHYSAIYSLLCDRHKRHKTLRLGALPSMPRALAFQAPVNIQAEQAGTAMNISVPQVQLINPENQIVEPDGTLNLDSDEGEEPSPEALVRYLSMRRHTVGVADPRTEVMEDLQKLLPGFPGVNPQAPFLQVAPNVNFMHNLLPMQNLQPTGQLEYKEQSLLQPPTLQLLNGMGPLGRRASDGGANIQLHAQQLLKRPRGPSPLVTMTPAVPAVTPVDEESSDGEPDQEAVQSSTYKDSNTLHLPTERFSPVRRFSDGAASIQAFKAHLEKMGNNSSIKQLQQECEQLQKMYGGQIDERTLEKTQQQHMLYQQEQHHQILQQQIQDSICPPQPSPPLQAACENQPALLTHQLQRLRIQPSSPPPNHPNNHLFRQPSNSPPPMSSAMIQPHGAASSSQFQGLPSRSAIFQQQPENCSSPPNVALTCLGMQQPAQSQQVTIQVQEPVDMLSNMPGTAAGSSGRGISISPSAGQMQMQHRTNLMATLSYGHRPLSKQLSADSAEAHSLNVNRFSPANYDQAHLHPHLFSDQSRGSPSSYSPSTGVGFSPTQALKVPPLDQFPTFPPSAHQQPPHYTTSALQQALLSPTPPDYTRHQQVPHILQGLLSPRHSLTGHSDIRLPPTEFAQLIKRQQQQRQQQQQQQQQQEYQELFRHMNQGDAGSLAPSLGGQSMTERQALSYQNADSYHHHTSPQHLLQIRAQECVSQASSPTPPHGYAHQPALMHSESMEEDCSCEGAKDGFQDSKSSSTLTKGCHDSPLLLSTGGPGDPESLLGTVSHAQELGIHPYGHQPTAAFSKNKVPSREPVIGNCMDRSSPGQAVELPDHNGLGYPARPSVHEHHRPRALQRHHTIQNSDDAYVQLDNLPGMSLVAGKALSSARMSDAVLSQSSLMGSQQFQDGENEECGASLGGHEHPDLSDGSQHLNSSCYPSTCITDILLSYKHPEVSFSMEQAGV
Sequence of SIK2 (Q9H0K1 whole entry): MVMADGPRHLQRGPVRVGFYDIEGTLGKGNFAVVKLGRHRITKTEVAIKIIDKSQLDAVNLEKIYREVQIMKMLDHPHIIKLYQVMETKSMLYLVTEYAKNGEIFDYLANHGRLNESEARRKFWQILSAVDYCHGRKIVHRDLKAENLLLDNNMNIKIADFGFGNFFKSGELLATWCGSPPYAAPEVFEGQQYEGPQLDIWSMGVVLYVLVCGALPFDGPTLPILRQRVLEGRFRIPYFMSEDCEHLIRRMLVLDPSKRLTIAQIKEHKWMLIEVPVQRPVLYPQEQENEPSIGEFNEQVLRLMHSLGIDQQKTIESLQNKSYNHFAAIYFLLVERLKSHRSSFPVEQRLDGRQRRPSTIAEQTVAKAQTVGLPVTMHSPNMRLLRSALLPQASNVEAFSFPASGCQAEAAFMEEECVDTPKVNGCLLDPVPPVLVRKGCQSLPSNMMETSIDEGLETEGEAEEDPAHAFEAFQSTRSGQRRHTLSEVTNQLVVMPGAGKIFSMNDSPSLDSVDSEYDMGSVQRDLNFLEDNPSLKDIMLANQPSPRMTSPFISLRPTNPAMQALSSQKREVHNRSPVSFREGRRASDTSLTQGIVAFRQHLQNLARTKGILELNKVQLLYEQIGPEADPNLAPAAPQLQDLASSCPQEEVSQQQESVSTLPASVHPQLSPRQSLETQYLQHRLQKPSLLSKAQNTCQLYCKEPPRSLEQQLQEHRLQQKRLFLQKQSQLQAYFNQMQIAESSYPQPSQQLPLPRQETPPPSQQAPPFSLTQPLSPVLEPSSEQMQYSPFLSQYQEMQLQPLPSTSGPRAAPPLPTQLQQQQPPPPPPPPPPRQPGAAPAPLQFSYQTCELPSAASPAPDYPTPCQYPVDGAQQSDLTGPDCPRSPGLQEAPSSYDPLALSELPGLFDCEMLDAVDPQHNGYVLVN
Sequence of SIK1 (P57059 whole entry): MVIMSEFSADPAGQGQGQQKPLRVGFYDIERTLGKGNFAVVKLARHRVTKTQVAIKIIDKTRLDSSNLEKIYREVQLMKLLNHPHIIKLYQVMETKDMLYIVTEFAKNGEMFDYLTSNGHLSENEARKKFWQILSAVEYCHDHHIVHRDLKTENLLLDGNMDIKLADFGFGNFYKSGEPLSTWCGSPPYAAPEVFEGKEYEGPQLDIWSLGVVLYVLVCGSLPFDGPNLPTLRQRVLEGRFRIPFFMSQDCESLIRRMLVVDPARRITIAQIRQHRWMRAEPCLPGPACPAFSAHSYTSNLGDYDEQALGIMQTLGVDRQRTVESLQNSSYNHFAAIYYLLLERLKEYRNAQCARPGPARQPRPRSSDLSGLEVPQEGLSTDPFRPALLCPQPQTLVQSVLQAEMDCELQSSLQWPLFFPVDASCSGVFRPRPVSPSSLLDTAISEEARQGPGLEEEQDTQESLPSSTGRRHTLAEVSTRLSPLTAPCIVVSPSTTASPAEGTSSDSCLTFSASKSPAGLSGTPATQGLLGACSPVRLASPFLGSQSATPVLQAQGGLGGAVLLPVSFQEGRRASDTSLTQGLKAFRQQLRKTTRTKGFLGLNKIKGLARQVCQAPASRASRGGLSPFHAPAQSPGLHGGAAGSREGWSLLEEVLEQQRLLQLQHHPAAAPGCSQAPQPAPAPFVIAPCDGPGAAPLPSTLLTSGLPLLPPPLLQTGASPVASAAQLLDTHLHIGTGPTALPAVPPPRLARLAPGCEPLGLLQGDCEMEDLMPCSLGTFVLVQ

For `COc1cc2ncn(-c3ccc(C(O)C4CC4)c(-c4cccc(Cl)c4)n3)c2cc1OC` (stereo not drawn) [Example 25, (2-(3-Chlorophenyl)-6-(5,6-dimethoxy-1H-benzo[d]imidazol-1-yl)pyridin-3-yl)(cyclopropyl)methanol], the 50% inhibitory concentration (IC50) came to 605 nM at SIK2, 777 nM at SIK1 and 987 nM at SIK3.

Take `COc1cc2ncn(-c3ccc(CO)c(N4CCOCC4)n3)c2cc1OC` [Example 26, (6-(5,6-Dimethoxy-1H-benzo[d]imidazol-1-yl)-2-morpholinopyridin-3-yl)methanol]: the IC50 at SIK2 was 699 nM; at SIK1, 806 nM; at SIK3, 1440 nM.

Take `COc1cc2ncn(-c3ccc(CO)c(N4CCCC4)n3)c2cc1OC` [Example 27, (6-(5,6-Dimethoxy-1H-benzo[d]imidazol-1-yl)-2-(pyrrolidin-1-yl)pyridin-3-yl)methanol]: the IC50 at SIK2 worked out at 473 nM; on SIK1, 535 nM; at SIK3, 761 nM.

On to `COc1cc2ncn(-c3ccc(CO)c(N4CCCCC4)n3)c2cc1OC` [Example 28, (6-(5,6-Dimethoxy-1H-benzo[d]imidazol-1-yl)-2-(piperidin-1-yl)pyridin-3-yl)methanol], for which the half-inhibitory concentration (IC50) on SIK2 was 268 nM; at SIK1, 326 nM; on SIK3, 713 nM.

Consider `COc1cc2ncn(-c3ccc(CO)c(NCCCCCO)n3)c2cc1OC` [Example 32, 5-((6-(5,6-Dimethoxy-1H-benzo[d]imidazol-1-yl)-3-(hydroxymethyl)pyridin-2-yl)amino)pentan-1-ol], for which the IC50 was 259 nM at SIK2, 373 nM at SIK1 and 1400 nM on SIK3.

Take `COc1cc2ncn(-c3ccc(CO)c(N4CCCC4=O)n3)c2cc1OC` [Example 33, 1-(6-(5,6-Dimethoxy-1H-benzo[d]imidazol-1-yl)-3-(hydroxymethyl)pyridin-2-yl)pyrrolidin-2-one]: the IC50 at SIK2 turned out to be 402 nM; at SIK1, 320 nM; on SIK3 it was 1940 nM.

With `COc1cc2ncn(-c3ccc(CO)c(NCCCCO)n3)c2cc1OC` [Example 34, 4-((6-(5,6-Dimethoxy-1H-benzo[d]imidazol-1-yl)-3-(hydroxymethyl)pyridin-2-yl)amino)butan-1-ol], the 50% inhibitory concentration (IC50) on SIK2 turned out to be 377 nM; on SIK1, 508 nM; on SIK3 it was 1680 nM.

For `COc1cc2ncn(-c3ccc([C@H](C)O)c(-c4ccccc4C(N)=O)n3)c2cc1OC` [Example 35, (S)-2-(6-(5,6-Dimethoxy-1H-benzo[d]imidazol-1-yl)-3-(l-hydroxyethyl)pyridin-2-yl)benzamide], the IC50 on SIK2 is 6080 nM; on SIK1 it was 13400 nM; on SIK3 it was 7470 nM.

Take `COc1cc2ncn(-c3ccc([C@@H](C)O)c(-c4ccccc4C(N)=O)n3)c2cc1OC` [Example 36, (R)-2-(6-(5,6-Dimethoxy-1H-benzo[d]imidazol-1-yl)-3-(1-hydroxyethyl)pyridin-2-yl)benzamide]: the figures for the IC50 on SIK2, at SIK1 and at SIK3 were 9680 nM, 23900 nM and 13600 nM, respectively.

Consider `COc1cc2ncn(-c3ccc([C@H](C)O)c(-c4cccc(C#N)c4)n3)c2cc1OC` [Example 37, (S)-3-(6-(5,6-Dimethoxy-1H-benzo[d]imidazol-1-yl)-3-(l-hydroxyethyl)pyridin-2-yl)benzonitrile], for which the 50% inhibitory concentration (IC50) stood at 4.9 nM at SIK2, 15 nM at SIK1 and 22.4 nM at SIK3.

For `COc1cc2ncn(-c3ccc([C@@H](C)O)c(-c4cccc(C#N)c4)n3)c2cc1OC` [Example 38, (R)-3-(6-(5,6-Dimethoxy-1H-benzo[d]imidazol-1-yl)-3-(l-hydroxyethyl)pyridin-2-yl)benzonitrile], the IC50 was determined as 58.4 nM at SIK2, 158 nM on SIK1 and 259 nM at SIK3.

For `COc1cc2ncn(-c3ccc([C@H](C)O)c(-c4ccc(C#N)cc4)n3)c2cc1OC` [Example 39, (S)-4-(6-(5,6-Dimethoxy-1H-benzo[d]imidazol-1-yl)-3-(l-hydroxyethyl)pyridin-2-yl)benzonitrile], the IC50 at SIK2 is 24.9 nM; on SIK1 it was 152 nM; on SIK3, 178 nM.

With `COc1cc2ncn(-c3ccc([C@@H](C)O)c(-c4ccc(C#N)cc4)n3)c2cc1OC` [Example 40, (R)-4-(6-(5,6-Dimethoxy-1H-benzo[d]imidazol-1-yl)-3-(1-hydroxyethyl)pyridin-2-yl)benzonitrile], the values for the half-maximal inhibitory concentration (IC50) on SIK2, on SIK1 and on SIK3 were 517 nM, 1030 nM and 1660 nM, respectively.

`COc1cc2ncn(-c3ccc([C@H](C)O)c(-c4ccn(C)c(=O)c4)n3)c2cc1OC` [Example 41, (S)-6-(5,6-Dimethoxy-1H-benzo[d]imidazol-1-yl)-3-(1-hydroxyethyl)-1′-methyl-[2,4′-bipyridin]-2′(1′H)-one]: the concentration for half-maximal inhibition (IC50) on SIK2 was 91.7 nM; at SIK1 it was 197 nM; at SIK3, 300 nM.

Turning to `COc1cc2ncn(-c3ccc([C@@H](C)O)c(-c4ccn(C)c(=O)c4)n3)c2cc1OC` [Example 42, (R)-6-(5,6-Dimethoxy-1H-benzo[d]imidazol-1-yl)-3-(1-hydroxyethyl)-1′-methyl-[2,4′-bipyridin]-2′(1′H)-one], the IC50 at SIK2 came out at 1040 nM; on SIK1 it was 1300 nM; on SIK3 it was 2060 nM.

Take `CC(O)c1ccc(-n2cnc3cc(OCCN4CCOCC4)ccc32)nc1Oc1ccccc1` (stereo not drawn) [Example 53, 1-[6-[5-(2-Morpholinoethoxy)benzimidazol-1-yl]-2-phenoxy-3-pyridyl]ethanol]: the IC50 on SIK2 amounted to 320 nM; at SIK1 it was 2150 nM; at SIK3, 405 nM.

Regarding `CC(O)c1ccc(-n2cnc3cc(OCCN4CCOCC4)ccc32)nc1Nc1ccccc1` (stereo not drawn) [Example 55, 1-[2-Anilino-6-[5-(2-morpholinoethoxy)benzimidazol-1-yl]-3-pyridyl]ethanol], the figures for the IC50 at SIK2, at SIK1 and on SIK3 were 103 nM, 1290 nM and 130 nM, respectively.

Turning to `CC(O)c1ccc(-n2cnc3cc(OCCN4CCOCC4)ccc32)nc1-n1ccc(C(F)(F)F)n1` (stereo not drawn) [Example 62, 1-[6-[5-(2-Morpholinoethoxy)benzimidazol-1-yl]-2-[3-(trifluoromethyl)pyrazol-1-yl]-3-pyridyl]ethanol], the IC50 stood at 189 nM at SIK2, 1670 nM on SIK1 and 176 nM at SIK3.

Consider `COc1cc2ncn(-c3ccc(C(C)O)c(-n4ccc(C(F)(F)F)n4)n3)c2cc1OC` (stereo not drawn) [Example 63, 1-[6-(5,6-Dimethoxybenzimidazol-1-yl)-2-[3-(trifluoromethyl)pyrazol-1-yl]-3-pyridyl]ethanol], for which the IC50 on SIK2 amounted to 34.6 nM; at SIK1, 93 nM; on SIK3, 152 nM.

`Cc1cc(C#N)nn1-c1nc(-n2cnc3cc(N4CCN(C)CC4)ccc32)ccc1C(C)O` (stereo not drawn) [Example 65, 1-[3-(1-Hydroxyethyl)-6-[5-(4-methylpiperazin-1-yl)benzimidazol-1-yl]-2-pyridyl]-5-methyl-pyrazole-3-carbonitrile]: the half-inhibitory concentration (IC50) is 63.7 nM on SIK2, 652 nM at SIK1 and 81.9 nM on SIK3.

What is called IC50 is the concentration that gives 50% inhibition.
